Values quoted from earlier work, collected in US8747895B2 (priority 2004, dated 2014).
Like-named read-outs stand apart in the source and are kept apart here.

Settings: for absolute bioavailability: oral administration

Q: For “(−)-N-Methyl-3-(o-tolyloxy)-propylamine hydrochloride [Atomoxetine]”, which absolute bioavailability (EMs (extensive metabolizers)) is on record?
A: 63%

Q: And the absolute bioavailability (PMs (poor metabolizers))?
A: 94%

Q: What about the “delay of Tmax with food” value (standard high-fat meal) of the same substance?
A: 3 h

Q: And the “lower Cmax with food” value (standard high-fat meal)?
A: 10-37%
